Assay results reported in PubChem BioAssay (NCI).
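Protocol summary: plate cells (96-well), add compound at 5 concentrations, incubate 48 h, interpolate endpoints linearly. TGI marks complete inhibition of growth.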

Columns and labels:
Assay in all cases: inhibition of tumour cell growth, NCI panel, 48 h
DLD-1 colon = system: DLD-1 colon
A549 NSCLC = system: A549 NSCLC
COLO 205 colon = system: COLO 205 colon
M19-MEL melanoma = system: M19-MEL melanoma
RPMI-8226 leukemia = system: RPMI-8226 leukemia
SF-295 CNS = system: SF-295 CNS
SK-MEL-5 melanoma = system: SK-MEL-5 melanoma
OVCAR-3 ovarian = system: OVCAR-3 ovarian
SK-OV-3 ovarian = system: SK-OV-3 ovarian
HT29 colon = system: HT29 colon
HOP-92 NSCLC = system: HOP-92 NSCLC
MALME-3M melanoma = system: MALME-3M melanoma
OVCAR-4 ovarian = system: OVCAR-4 ovarian
ACHN renal = system: ACHN renal
NCI-H460 lung = system: NCI-H460 lung
HOP-18 NSCLC = system: HOP-18 NSCLC
HOP-62 NSCLC = system: HOP-62 NSCLC
EKVX NSCLC = system: EKVX NSCLC
SK-MEL-28 melanoma = system: SK-MEL-28 melanoma
CCRF-CEM leukemia = system: CCRF-CEM leukemia
UO-31 renal = system: UO-31 renal
OVCAR-8 ovarian = system: OVCAR-8 ovarian
SW-620 colon = system: SW-620 colon
HCT-116 colon = system: HCT-116 colon
IGROV1 ovarian = system: IGROV1 ovarian
UACC-257 melanoma = system: UACC-257 melanoma
MOLT-4 leukemia = system: MOLT-4 leukemia
A498 renal = system: A498 renal
SN12C renal = system: SN12C renal
XF 498 CNS = system: XF 498 CNS
TK-10 renal = system: TK-10 renal
SNB-75 CNS = system: SNB-75 CNS
CAKI-1 renal = system: CAKI-1 renal
LOX IMVI melanoma = system: LOX IMVI melanoma
DMS 114 small cell lung = system: DMS 114 small cell lung
DMS 273 small cell lung = system: DMS 273 small cell lung
HCC-2998 colon = system: HCC-2998 colon
KM20L2 colon = system: KM20L2 colon
K-562 leukemia = system: K-562 leukemia
SR leukemia = system: SR leukemia
786-0 renal = system: 786-0 renal
SF-268 CNS = system: SF-268 CNS
OVCAR-5 ovarian = system: OVCAR-5 ovarian
M14 melanoma = system: M14 melanoma
UACC-62 melanoma = system: UACC-62 melanoma
SNB-19 CNS = system: SNB-19 CNS
SK-MEL-2 melanoma = system: SK-MEL-2 melanoma
RXF 393 renal = system: RXF 393 renal
NCI-H522 lung = system: NCI-H522 lung
HCT-15 colon = system: HCT-15 colon
U251 CNS = system: U251 CNS
KM12 colon = system: KM12 colon
LXFL 529 NSCLC = system: LXFL 529 NSCLC
NCI-H23 lung = system: NCI-H23 lung
HL-60(TB) leukemia = system: HL-60(TB) leukemia
NCI-H226 lung = system: NCI-H226 lung
SF-539 CNS = system: SF-539 CNS
SNB-78 CNS = system: SNB-78 CNS

Measured: TGI

CCOC(=O)C(=O)/C=C(\C)Nc1c(NC2OCC(OC(C)=O)C(OC(C)=O)C2OC(C)=O)nc(SC)[nH]c1=O (configuration not stated)
not listed: HL-60(TB) leukemia | NCI-H226 lung | SF-539 CNS | SNB-78 CNS
> 100 µM: all other assays above

CCOC(=O)N1C=NC23C(c4ccccc4)C(c4ccccc4)C12C(=O)N(C)C(=O)N3C (configuration not stated)
not listed: DMS 114 small cell lung | NCI-H226 lung | SF-539 CNS | SNB-78 CNS
> 100 µM: all other assays above

CSC1(C)CC2C(CC1N1CCCCC1)C2(C)C (configuration not stated)
not listed: SK-MEL-5 melanoma | HOP-62 NSCLC | EKVX NSCLC | SW-620 colon | A498 renal | CAKI-1 renal | LOX IMVI melanoma | DMS 114 small cell lung | KM20L2 colon | SR leukemia | UACC-62 melanoma | SNB-19 CNS | RXF 393 renal | NCI-H522 lung
> 100 µM: all other assays above
